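Where inhibition never reached the appropriate level, the endpoint shown equals the highest concentration tested. Otherwise, values were interpolated linearly from a five-concentration, 48-hour dose response in 96-well plates. GI50 marks 50% less growth.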 Calls of active or inactive are those of the source. No stated cut-off is given here; in the data, active = GI50 up to about 1.1 µM and inactive = higher.
Experiments:
Experiment in all cases: NCI anticancer screen, dose series, 48 h
786-0 = test system: 786-0
A549 = test system: A549
ACHN = test system: ACHN
BT-549 = test system: BT-549
CAKI-1 = test system: CAKI-1
CCRF-CEM = test system: CCRF-CEM
COLO 205 = test system: COLO 205
DU-145 = test system: DU-145
EKVX = test system: EKVX
HCC 2998 = test system: HCC 2998
HCT-116 = test system: HCT-116
HCT-15 = test system: HCT-15
HL-60 = test system: HL-60
HOP-62 = test system: HOP-62
HOP-92 = test system: HOP-92
HT-29 = test system: HT-29
Hs-578T = test system: Hs-578T
IGROV-1 = test system: IGROV-1
K562 = test system: K562
KM12 = test system: KM12
LOX IMVI = test system: LOX IMVI
M14 = test system: M14
MCF7 = test system: MCF7
MDA-MB-231 = test system: MDA-MB-231
MDA-MB-435 = test system: MDA-MB-435
MDA-N = test system: MDA-N
MOLT-4 = test system: MOLT-4
Malme-3M = test system: Malme-3M
NCI-H226 = test system: NCI-H226
NCI-H23 = test system: NCI-H23
NCI-H460 = test system: NCI-H460
NCI-H522 = test system: NCI-H522
NCI/ADR-RES = test system: NCI/ADR-RES
OVCAR-3 = test system: OVCAR-3
OVCAR-4 = test system: OVCAR-4
OVCAR-5 = test system: OVCAR-5
OVCAR-8 = test system: OVCAR-8
PC-3 = test system: PC-3
RPMI-8226 = test system: RPMI-8226
RXF 393 = test system: RXF 393
SF-268 = test system: SF-268
SF-295 = test system: SF-295
SF-539 = test system: SF-539
SK-MEL-28 = test system: SK-MEL-28
SK-MEL-2 = test system: SK-MEL-2
SK-MEL-5 = test system: SK-MEL-5
SK-OV-3 = test system: SK-OV-3
SN12C = test system: SN12C
SNB-19 = test system: SNB-19
SNB-75 = test system: SNB-75
SR = test system: SR
SW-620 = test system: SW-620
T47D = test system: T47D
TK-10 = test system: TK-10
U-251 = test system: U-251
UACC-257 = test system: UACC-257
UACC-62 = test system: UACC-62
UO-31 = test system: UO-31
A498 = test system: A498

In the case of O=C(O)c1ccccc1CC1Cc2ccccc2C1, the GI50 (786-0) is reported as > 100 µM (inactive), the GI50 (A549) is reported as > 100 µM (inactive) and the GI50 (ACHN) is reported as > 100 µM (inactive). The GI50 (BT-549) was > 100 µM (inactive), the GI50 (CAKI-1) was > 100 µM (inactive) and the GI50 (CCRF-CEM) was > 100 µM (inactive). For the same compound, the GI50 (COLO 205) was > 100 µM (inactive), the GI50 (DU-145) was > 100 µM (inactive) and the GI50 (EKVX) was > 100 µM (inactive). For the same compound, the GI50 (HCC 2998) was > 100 µM (inactive), the GI50 (HCT-116) was > 100 µM (inactive) and the GI50 (HCT-15) was greater than 100 µM. For the same compound, the GI50 (HL-60) was > 100 µM (inactive), the GI50 (HOP-62) was > 100 µM (inactive) and the GI50 (HOP-92) was > 100 µM (inactive). For the same compound, the GI50 (HT-29) was > 100 µM (inactive), the GI50 (Hs-578T) was > 100 µM (inactive) and the GI50 (IGROV-1) was > 100 µM (inactive). For the same compound, the GI50 (K562) was > 100 µM (inactive), the GI50 (KM12) was > 100 µM (inactive) and the GI50 (LOX IMVI) was > 100 µM (inactive). For the same compound, the GI50 (M14) was > 100 µM (inactive), the GI50 (MCF7) was > 100 µM (inactive) and the GI50 (MDA-MB-231) was > 100 µM (inactive). For the same compound, the GI50 (MDA-MB-435) was > 100 µM (inactive), the GI50 (MDA-N) was > 100 µM (inactive) and the GI50 (MOLT-4) was > 100 µM (inactive). The GI50 (Malme-3M) was > 100 µM (inactive), the GI50 (NCI-H226) was > 100 µM (inactive) and the GI50 (NCI-H23) was > 100 µM (inactive). For the same compound, the GI50 (NCI-H460) was > 100 µM (inactive), the GI50 (NCI-H522) was > 100 µM (inactive) and the GI50 (NCI/ADR-RES) was > 100 µM (inactive). For the same compound, the GI50 (OVCAR-3) was > 100 µM (inactive), the GI50 (OVCAR-4) was > 100 µM (inactive) and the GI50 (OVCAR-5) was > 100 µM (inactive). The GI50 (OVCAR-8) was > 100 µM (inactive), the GI50 (PC-3) was > 100 µM (inactive) and the GI50 (RPMI-8226) was > 100 µM (inactive). The GI50 (RXF 393) was > 100 µM (inactive), the GI50 (SF-268) was > 100 µM (inactive) and the GI50 (SF-295) was > 100 µM (inactive). The GI50 (SF-539) was > 100 µM (inactive), the GI50 (SK-MEL-28) was > 100 µM (inactive) and the GI50 (SK-MEL-2) was > 100 µM (inactive). The GI50 (SK-MEL-5) was > 100 µM (inactive), the GI50 (SK-OV-3) was > 100 µM (inactive) and the GI50 (SN12C) was > 100 µM (inactive). The GI50 (SNB-19) was > 100 µM (inactive), the GI50 (SNB-75) was > 100 µM (inactive) and the GI50 (SR) was > 100 µM (inactive). The GI50 (SW-620) was > 100 µM (inactive), the GI50 (T47D) was > 100 µM (inactive) and the GI50 (TK-10) was > 100 µM (inactive). For the same compound, the GI50 (U-251) was > 100 µM (inactive), the GI50 (UACC-257) was > 100 µM (inactive) and the GI50 (UACC-62) was > 100 µM (inactive). The GI50 (UO-31) was > 100 µM (inactive).
For C[N+]1(C)CCOC(O)(c2ccccc2)C1 (stereo unspecified), the GI50 (786-0) was > 100 µM (inactive), the GI50 (A498) was > 100 µM (inactive) and the GI50 (A549) was > 100 µM (inactive). The GI50 (ACHN) was > 100 µM (inactive), the GI50 (BT-549) was > 100 µM (inactive) and the GI50 (CAKI-1) was > 100 µM (inactive). The GI50 (CCRF-CEM) was > 100 µM (inactive), the GI50 (COLO 205) was > 100 µM (inactive) and the GI50 (DU-145) was > 100 µM (inactive). The GI50 (EKVX) was > 100 µM (inactive), the GI50 (HCT-116) was > 100 µM (inactive) and the GI50 (HCT-15) was greater than 100 µM. For the same compound, the GI50 (HL-60) was > 100 µM (inactive), the GI50 (HOP-62) was > 100 µM (inactive) and the GI50 (HOP-92) was > 100 µM (inactive). The GI50 (HT-29) was > 100 µM (inactive), the GI50 (Hs-578T) was > 100 µM (inactive) and the GI50 (IGROV-1) was > 100 µM (inactive). For the same compound, the GI50 (K562) was > 100 µM (inactive), the GI50 (KM12) was > 100 µM (inactive) and the GI50 (LOX IMVI) was > 100 µM (inactive). The GI50 (M14) was > 100 µM (inactive), the GI50 (MCF7) was > 100 µM (inactive) and the GI50 (MDA-MB-231) was > 100 µM (inactive). The GI50 (MDA-MB-435) was > 100 µM (inactive), the GI50 (MDA-N) was > 100 µM (inactive) and the GI50 (MOLT-4) was > 100 µM (inactive). The GI50 (Malme-3M) was > 100 µM (inactive), the GI50 (NCI-H226) was > 100 µM (inactive) and the GI50 (NCI-H23) was > 100 µM (inactive). For the same compound, the GI50 (NCI-H460) was > 100 µM (inactive), the GI50 (NCI-H522) was > 100 µM (inactive) and the GI50 (NCI/ADR-RES) was > 100 µM (inactive). For the same compound, the GI50 (OVCAR-3) was > 100 µM (inactive), the GI50 (OVCAR-4) was > 100 µM (inactive) and the GI50 (OVCAR-5) was > 100 µM (inactive). For the same compound, the GI50 (OVCAR-8) was > 100 µM (inactive), the GI50 (PC-3) was > 100 µM (inactive) and the GI50 (RPMI-8226) was > 100 µM (inactive). The GI50 (RXF 393) was > 100 µM (inactive), the GI50 (SF-268) was > 100 µM (inactive) and the GI50 (SF-295) was > 100 µM (inactive). For the same compound, the GI50 (SF-539) was > 100 µM (inactive), the GI50 (SK-MEL-28) was > 100 µM (inactive) and the GI50 (SK-MEL-2) was > 100 µM (inactive). For the same compound, the GI50 (SK-MEL-5) was > 100 µM (inactive), the GI50 (SK-OV-3) was > 100 µM (inactive) and the GI50 (SN12C) was > 100 µM (inactive). For the same compound, the GI50 (SNB-19) was > 100 µM (inactive), the GI50 (SNB-75) was > 100 µM (inactive) and the GI50 (SR) was > 100 µM (inactive). For the same compound, the GI50 (SW-620) was > 100 µM (inactive), the GI50 (T47D) was > 100 µM (inactive) and the GI50 (TK-10) was > 100 µM (inactive). For the same compound, the GI50 (U-251) was > 100 µM (inactive), the GI50 (UACC-257) was > 100 µM (inactive) and the GI50 (UACC-62) was > 100 µM (inactive). For the same compound, the GI50 (UO-31) was > 100 µM (inactive).

— ChEMBL document CHEMBL1201862, “PubChem BioAssay data set” (2004)
